In patent publication US11878973B2, “Bicyclic compounds and their uses” (NOVARTIS AG, priority 2021, dated 2024):
Like-named read-outs stand apart in the source and are kept apart here.

Tests used:
SW48 cells = experiment: Proliferation assay SW48 (CellTiterGlo, 96 hours)
DLD1-WRN-KO cells = experiment: Proliferation assay DLD1-WRN-KO (CellTiterGlo, 96 hours; off-target effects)
Method: The WRN-knockdown insensitive colon carcinoma cell line DLD-1 (RRID: CVCL_0248) was obtained from the Korean Cell Line Bank (KCLB), and used to generate a derivative in which the endogenous WRN gene copies were knocked out by CRISPR-mediated editing using standard CRISPR methods. The resulting cell line, DLD1-WRN—KO, was used to assess potential off-target compound effects.
All cells were maintained at 37° C. in a humidified 5% CO2 incubator.
For data analysis, the assay background signal that was determined in wells containing medium, but no cells, was subtracted from all other data points prior to further calculations. The extent of growth inhibition and potential cell kill was assessed by comparing the ATP levels (measured using CellTiterGlo, Promega) in compound-treated cells with those present at the time of compound addition. […] 100%, 0% and −100% signify absence of growth inhibition, growth stasis, and complete cell kill, respectively. Compound concentrations leading to half-maximal growth inhibition (G150) and residual cell viability at the highest tested compound concentration (Data (cmax), expressed in percent) were routinely calculated. Data analysis can also be carried out using commercially available software designed to derive IC50 values using 4-parameter fits (e.g. GraphPad Prism, XL fit). The reported GI50 values are the geometrical means of at least 2 independent replicates.

WRN helicase = WRN helicase (Homo sapiens (Human), UniProt Q14191); experiment: In vitro enzymatic activity assay on WRN helicase (DNA dependent ATPase assay, ADP-Glo); assay type: biochemical
WRN helicase, sequence (Q14191 517-1238): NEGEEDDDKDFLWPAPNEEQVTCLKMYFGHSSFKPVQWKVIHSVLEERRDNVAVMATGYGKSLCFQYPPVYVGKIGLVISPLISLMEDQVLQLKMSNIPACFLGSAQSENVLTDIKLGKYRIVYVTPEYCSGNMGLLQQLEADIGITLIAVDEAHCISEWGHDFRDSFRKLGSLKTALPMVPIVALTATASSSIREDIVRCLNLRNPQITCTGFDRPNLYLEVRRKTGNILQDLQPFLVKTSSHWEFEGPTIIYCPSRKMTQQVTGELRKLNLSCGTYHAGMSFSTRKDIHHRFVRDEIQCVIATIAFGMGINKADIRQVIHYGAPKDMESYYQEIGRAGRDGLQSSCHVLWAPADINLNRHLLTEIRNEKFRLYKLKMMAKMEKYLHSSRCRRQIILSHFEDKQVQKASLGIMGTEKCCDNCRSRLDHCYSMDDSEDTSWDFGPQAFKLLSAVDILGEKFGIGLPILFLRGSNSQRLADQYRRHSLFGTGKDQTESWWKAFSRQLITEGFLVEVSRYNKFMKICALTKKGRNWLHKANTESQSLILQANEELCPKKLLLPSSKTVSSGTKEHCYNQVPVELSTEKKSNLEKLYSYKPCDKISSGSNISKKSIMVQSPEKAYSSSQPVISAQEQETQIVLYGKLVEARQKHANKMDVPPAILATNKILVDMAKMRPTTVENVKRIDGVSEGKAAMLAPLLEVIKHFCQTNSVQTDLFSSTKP
Method in brief: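 DNA-dependent ATPase activity was measured by ADP-Glo luminescent ADP detection after a 30-min room-temperature reaction. The reaction contained 10 nM WRN (residues N517-P1238), 0.2 nM FLAP26 and 300 µM ATP at pH 7.5 with 2 mM MgCl2. Compounds were tested as 10-point half-log series in duplicate; IC50 values are geometric means from at least two independent experiments.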

[1] = Homo sapiens, SW48, read-out: Proliferation Assay SW48 (GI50)
[2] = Homo sapiens, read-out: Proliferation Assay DLD1-WRN-KO (GI50)
[3] = geometric means of at least 2 determinations, read-out: WRN ATPase Activity (IC50)
[4] = read-out: Proliferation Assay SW48 (GI50), SW48 cell line, geometric means of at least 2 determinations
[5] = read-out: Proliferation Assay DLD1-WRN-KO (GI50), DLD1-WRN-KO cell line, geometric means of at least 2 determinations

Compound | GI50 (SW48 cells; [1]) [nM] | GI50 (DLD1-WRN-KO cells; [2]) [nM] | IC50 (WRN helicase; [3]) [nM] | GI50 (SW48 cells; Homo sapiens, SW48, read-out: proliferation GI50 in SW48, as stated in text) [nM] | GI50 (DLD1-WRN-KO cells; Homo sapiens, DLD-1, read-out: proliferation GI50 in DLD1 WRN-KO) [nM] | IC50 (WRN helicase; read-out: WRN ATPase inhibition (IC50)) [nM] | GI50 (SW48 cells; [4]) [nM] | GI50 (DLD1-WRN-KO cells; [5]) [nM]
CCc1c(N2CCN(C(=O)c3ncccc3O)CC2)c(=O)n2nc(C3=CCOCC3)nc2n1CC(=O)Nc1ccc(C(F)(F)F)cc1 [Example 72, 2-(2-(3,6-dihydro-2H-pyran-4-yl)-5-ethyl-6-(4-(3-hydroxypicolinoyl)piperazin-1-yl)-7-oxo-[1,2,4]triazolo[1,5-a]pyrimidin-4(7H)-yl)-N-(4-(trifluoromethyl)phenyl)acetamide] | 50 | > 10000 | 50 |  |  |  |  | 
CCc1c(N2CCN(C(=O)c3ncc(C)c(F)c3O)CC2)c(=O)n2nc(C3=CCOCC3)nc2n1CC(=O)Nc1ccc(C(F)(F)F)cc1Cl [Example 97, N-(2-chloro-4-(trifluoromethyl)phenyl)-2-(2-(3,6-dihydro-2H-pyran-4-yl)-5-ethyl-6-(4-(4-fluoro-3-hydroxy-5-methylpicolinoyl)piperazin-1-yl)-7-oxo-[1,2,4]triazolo[1,5-a]pyrimidin-4(7H)-yl)acetamide] | 70 | > 10000 | 80 |  |  |  |  | 
CCc1c(N2CCN(C(=O)c3ncnc(C)c3O)[C@H](C)[C@H]2C)c(=O)n2nc(C3=CCOCC3)nc2n1CC(=O)Nc1ccc(C(F)(F)F)cc1Cl [Example 119, N-(2-chloro-4-(trifluoromethyl)phenyl)-2-(2-(3,6-dihydro-2H-pyran-4-yl)-5-ethyl-6-((2R,3R)-4-(5-hydroxy-6-methylpyrimidine-4-carbonyl)-2,3-dimethylpiperazin-1-yl)-7-oxo-[1,2,4]triazolo[1,5-a]pyrimidin-4(7H)-yl)acetamide] | 50 | > 10000 | 160 |  |  |  |  | 
CCc1c(N2CCN(C(=O)c3nccc(Cl)c3O)CC2)c(=O)n2nc(C3=CCCCO3)nc2n1CC(=O)Nc1ccc(C(F)(F)F)nc1Cl [Example 30, 2-(6-(4-(4-chloro-3-hydroxypicolinoyl)piperazin-1-yl)-2-(3,4-dihydro-2H-pyran-6-yl)-5-ethyl-7-oxo-[1,2,4]triazolo[1,5-a]pyrimidin-4(7H)-yl)-N-(2-chloro-6-(trifluoromethyl)pyridin-3-yl)acetamide] | 160 | > 10000 | 140 |  |  |  |  | 
CCc1c(N2CCN(C(=O)c3ncnc(C)c3O)CC2)c(=O)n2nc(C3=CCOCC3)nc2n1CC(=O)Nc1ccc(C(F)(F)F)cc1C [Example 57, 2-(2-(3,6-dihydro-2H-pyran-4-yl)-5-ethyl-6-(4-(5-hydroxy-6-methylpyrimidine-4-carbonyl)piperazin-1-yl)-7-oxo-[1,2,4]triazolo[1,5-a]pyrimidin-4(7H)-yl)-N-(2-methyl-4-(trifluoromethyl)phenyl)acetamide] | 100 | > 10000 | 100 |  |  |  |  | 
CCc1c(N2CCN(C(=O)c3ncnc(C)c3O)CC2)c(=O)n2nc(C3=CCOCC3)nc2n1CC(=O)Nc1cc(F)c(C(F)(F)F)cc1C [Example 50, 2-(2-(3,6-dihydro-2H-pyran-4-yl)-5-ethyl-6-(4-(5-hydroxy-6-methylpyrimidine-4-carbonyl)piperazin-1-yl)-7-oxo-[1,2,4]triazolo[1,5-a]pyrimidin-4(7H)-yl)-N-(5-fluoro-2-methyl-4-(trifluoromethyl)phenyl)acetamide] | 50 | > 10000 | 30 |  |  |  |  | 
CCc1c(N2CCN(C(=O)c3nccc(Cl)c3O)CC2)c(=O)n2nc(N3CCOCC3)nc2n1CC(=O)Nc1ccc(C(F)(F)F)cc1Cl [Example 1, 2-(6-(4-(4-chloro-3-hydroxypicolinoyl)piperazin-1-yl)-5-ethyl-2-morpholino-7-oxo-[1,2,4]triazolo[1,5-a]pyrimidin-4(7H)-yl)-N-(2-chloro-4-(trifluoromethyl)phenyl)acetamide] | 50 | > 10000 | 50 | 50 | > 10000 | 50 |  | 
CCc1c(N2CCN(C(=O)c3nccc(Cl)c3O)CC2)c(=O)n2nc(C3=CCCCO3)nc2n1CC(=O)Nc1ccc(C(F)(F)F)nc1C [Example 56, 2-(6-(4-(4-chloro-3-hydroxypicolinoyl)piperazin-1-yl)-2-(3,4-dihydro-2H-pyran-6-yl)-5-ethyl-7-oxo-[1,2,4]triazolo[1,5-a]pyrimidin-4(7H)-yl)-N-(2-methyl-6-(trifluoromethyl)pyridin-3-yl)acetamide] | 250 | > 10000 | 160 |  |  |  |  | 
CCc1c(N2CCN(C(=O)c3ncnc(C)c3O)[C@@H](C)[C@H]2C)c(=O)n2nc(C3=CCOCC3)nc2n1CC(=O)Nc1ccc(C(F)(F)F)cc1Cl (single isomer, unassigned) [Example 121] |  |  | 860 |  |  |  | 1740 | > 10000
CCc1c(N2CCN(C(=O)c3ncccc3O)CC2)c(=O)n2nc(N3CCCC3)nc2n1CC(=O)Nc1ccc(C(F)(F)F)cc1C [Example 17, 2-(5-ethyl-6-(4-(3-hydroxypicolinoyl)piperazin-1-yl)-7-oxo-2-(pyrrolidin-1-yl)-[1,2,4]triazolo[1,5-a]pyrimidin-4(7H)-yl)-N-(2-methyl-4-(trifluoromethyl)phenyl)acetamide] | 240 | > 10000 | 140 |  |  |  |  | 
CCc1c(N2CCN(C(=O)c3ncnc(C)c3O)CC2)c(=O)n2nc(C3=CCOCC3)nc2n1CC(=O)Nc1ccc(S(F)(F)(F)(F)F)cc1C [Example 100, 2-(2-(3,6-dihydro-2H-pyran-4-yl)-5-ethyl-6-(4-(5-hydroxy-6-methylpyrimidine-4-carbonyl)piperazin-1-yl)-7-oxo-[1,2,4]triazolo[1,5-a]pyrimidin-4(7H)-yl)-N-(2-methyl-4-(pentafluorosulfanyl)phenyl)acetamide] | 30 | > 10000 | 60 |  |  |  |  | 
CCc1c(N2CCN(C(=O)c3nccc(Cl)c3O)CC2)c(=O)n2nc(C3=CC[C@H](OC)CC3)nc2n1CC(=O)Nc1ccc(C(F)(F)F)nc1Cl (single isomer, unassigned) [Example 24a] |  |  | 110 |  |  |  | 40 | > 10000
CCc1c(N2CCN(C(=O)c3ncccc3O)CC2)c(=O)n2nc(N3CCCC3)nc2n1CC(=O)Nc1cc(Cl)c(C(F)(F)F)cc1C [Example 19, N-(5-chloro-2-methyl-4-(trifluoromethyl)phenyl)-2-(5-ethyl-6-(4-(3-hydroxypicolinoyl)piperazin-1-yl)-7-oxo-2-(pyrrolidin-1-yl)-[1,2,4]triazolo[1,5-a]pyrimidin-4(7H)-yl)acetamide] | 110 | 5000 | 90 |  |  |  |  | 
CCc1c(N2CCN(C(=O)c3nccc(OC(F)(F)F)c3O)CC2)c(=O)n2nc(C3=CCOCC3)nc2n1CC(=O)Nc1ccc(C(F)(F)F)cc1Cl [Example 98, N-(2-chloro-4-(trifluoromethyl)phenyl)-2-(2-(3,6-dihydro-2H-pyran-4-yl)-5-ethyl-6-(4-(3-hydroxy-4-(trifluoromethoxy)picolinoyl)piperazin-1-yl)-7-oxo-[1,2,4]triazolo[1,5-a]pyrimidin-4(7H)-yl)acetamide] | 140 | > 10000 | 40 |  |  |  |  | 
CCc1c(N2CCN(C(=O)c3ncccc3O)CC2)c(=O)n2nc(C3=CCC(F)CN3)nc2n1CC(=O)Nc1ccc(C(F)(F)F)cc1C (racemic) [Example 111, rac-2-(5-ethyl-2-(5-fluoro-1,4,5,6-tetrahydropyridin-2-yl)-6-(4-(3-hydroxypicolinoyl)piperazin-1-yl)-7-oxo-[1,2,4]triazolo[1,5-a]pyrimidin-4(7H)-yl)-N-(2-methyl-4-(trifluoromethyl)phenyl)acetamide] | 1120 | > 10000 | 330 |  |  |  |  | 
CCc1c(N2CCN(C(=O)c3ncccc3O)CC2)c(=O)n2nc(N3CCOCC3)nc2n1CC(=O)Nc1ccc(C(F)(F)F)cc1C [Example 8, 2-(5-ethyl-6-(4-(3-hydroxypicolinoyl)piperazin-1-yl)-2-morpholino-7-oxo-[1,2,4]triazolo[1,5-a]pyrimidin-4(7H)-yl)-N-(2-methyl-4-(trifluoromethyl)phenyl)acetamide] | 210 | > 10000 | 80 |  |  |  |  | 
CCc1c(N2CCN(C(=O)c3nccc(Cl)c3O)CC2)c(=O)n2nc(N3CCOCC3)nc2n1CC(=O)Nc1cc(F)c(C(F)(F)F)cc1C [Example 6, 2-(6-(4-(4-chloro-3-hydroxypicolinoyl)piperazin-1-yl)-5-ethyl-2-morpholino-7-oxo-[1,2,4]triazolo[1,5-a]pyrimidin-4(7H)-yl)-N-(5-fluoro-2-methyl-4-(trifluoromethyl)phenyl)acetamide] | 270 | > 10000 | 70 |  |  |  |  | 
CCc1c(N2CCN(C(=O)c3ncnc(C)c3O)CC2)c(=O)n2nc(C3=CCOCC3)nc2n1CC(=O)Nc1ccc(S(F)(F)(F)(F)F)cc1Cl [Example 51, N-(2-chloro-4-(pentafluorosulfanyl)phenyl)-2-(2-(3,6-dihydro-2H-pyran-4-yl)-5-ethyl-6-(4-(5-hydroxy-6-methylpyrimidine-4-carbonyl)piperazin-1-yl)-7-oxo-[1,2,4]triazolo[1,5-a]pyrimidin-4(7H)-yl)acetamide] | 30 | > 10000 | 40 |  |  |  |  | 
